Results taken from ChEMBL document CHEMBL1201862, “PubChem BioAssay data set” (2004).
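Five concentrations, 48 hours, 96-well plates. GI50 = concentration required for 50% inhibition of growth.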 Active and inactive are the calls of the source. Rule as the data show it: active = GI50 up to about 1.1 µM and inactive = higher.

Legend:
Assay in all cases: growth of human tumour cells (NCI), 48 h
[1] = tested on: A498
[2] = tested on: A549
[3] = tested on: CAKI-1
[4] = tested on: CCRF-CEM
[5] = tested on: COLO 205
[6] = tested on: HCT-116
[7] = tested on: HL-60
[8] = tested on: HOP-62
[9] = tested on: LOX IMVI
[10] = tested on: M14
[11] = tested on: MCF7
[12] = tested on: MDA-MB-435
[13] = tested on: NCI-H23
[14] = tested on: NCI/ADR-RES
[15] = tested on: OVCAR-3
[16] = tested on: OVCAR-8
[17] = tested on: RXF 393
[18] = tested on: SNB-75
[19] = tested on: SR
[20] = tested on: U-251

| Structure (SMILES) | GI50 [1] | GI50 [2] | GI50 [3] | GI50 [4] | GI50 [5] | GI50 [6] | GI50 [7] | GI50 [8] | GI50 [9] | GI50 [10] | GI50 [11] | GI50 [12] | GI50 [13] | GI50 [14] | GI50 [15] | GI50 [16] | GI50 [17] | GI50 [18] | GI50 [19] | GI50 [20] |
| --- | --- | --- | --- | --- | --- | --- | --- | --- | --- | --- | --- | --- | --- | --- | --- | --- | --- | --- | --- | --- |
| COc1ccc2c(c1)CCCc1c-2nc2ccccc2c1N | 8.24 µM (inactive) | 12.9 µM (inactive) | 9.02 µM (inactive) | 5.24 µM (inactive) | 1.69 µM (inactive) | 5.81 µM (inactive) | 13.9 µM (inactive) | 1.52 µM (inactive) | 8.57 µM (inactive) | 9.1 µM (inactive) | 11.2 µM (inactive) | 12 µM (inactive) | 15.4 µM (inactive) | 12.9 µM (inactive) | 12.9 µM (inactive) | 12.9 µM (inactive) | 4.72 µM (inactive) | 10.7 µM (inactive) | 2.57 µM (inactive) | 12.7 µM (inactive) |
| C=C[C@H]1CN2CCc3c([nH]c4c([C@@H]5CCCN5C)c(O)ccc34)[C@@H]2C[C@@H]1C[C@H]1c2[nH]c3ccccc3c2CCN1C | 1.63 µM (inactive) | 0.764 µM (active) | 1.61 µM (inactive) | 0.188 µM (active) | 1.26 µM (inactive) | 0.239 µM (active) | 0.409 µM (active) | 1.31 µM (inactive) | 0.179 µM (active) | 0.307 µM (active) | 1.75 µM (inactive) | 1.48 µM (inactive) | 1.85 µM (inactive) | 1.61 µM (inactive) | 1.36 µM (inactive) | 1.69 µM (inactive) | 0.215 µM (active) | 0.813 µM (active) | 0.253 µM (active) | 1.49 µM (inactive) |
| C[N+](C)(N)c1nc(N)c(C#N)c(C#N)c1C#N | > 10 µM (inactive) | > 10 µM (inactive) | > 10 µM (inactive) | > 10 µM (inactive) | > 10 µM (inactive) | > 10 µM (inactive) | > 10 µM (inactive) | > 10 µM (inactive) | > 10 µM (inactive) | > 10 µM (inactive) | > 10 µM (inactive) | > 10 µM (inactive) | > 10 µM (inactive) | > 10 µM (inactive) | 1.91 µM (inactive) | > 10 µM (inactive) | > 10 µM (inactive) | > 10 µM (inactive) | > 10 µM (inactive) | > 10 µM (inactive) |
| O=S(=O)(OI(O)CC(F)(F)F)C(F)(F)F | > 100 µM (inactive) | > 100 µM (inactive) | > 100 µM (inactive) | > 100 µM (inactive) | > 100 µM (inactive) | > 100 µM (inactive) | > 100 µM (inactive) | > 100 µM (inactive) | > 100 µM (inactive) | > 100 µM (inactive) | > 100 µM (inactive) | > 100 µM (inactive) | > 100 µM (inactive) | > 100 µM (inactive) | > 100 µM (inactive) | > 100 µM (inactive) | > 100 µM (inactive) | > 100 µM (inactive) | > 100 µM (inactive) | > 100 µM (inactive) |
| N=C(N)NS(=O)(=O)c1ccc(Nc2c3ccccc3nc3c(C(=O)NCCO)cccc23)cc1 | 0.13 µM (active) | 0.157 µM (active) | 0.205 µM (active) | 0.416 µM (active) | 0.16 µM (active) | 0.223 µM (active) | 0.293 µM (active) | 0.186 µM (active) | 0.143 µM (active) | 0.183 µM (active) | 0.0282 µM (active) | 0.173 µM (active) | 0.167 µM (active) | 0.296 µM (active) | 0.142 µM (active) | 0.185 µM (active) | 0.173 µM (active) | 22.6 µM (inactive) | 0.136 µM (active) | 0.184 µM (active) |
| Brc1sc(Br)c2c1[C@H](Br)C[C@@H]2Br | 40.3 µM (inactive) | 30 µM (inactive) | 33.8 µM (inactive) | 31.1 µM (inactive) | 53.6 µM (inactive) | 37.2 µM (inactive) | 30.7 µM (inactive) | 64.9 µM (inactive) | 17.4 µM (inactive) | 29.2 µM (inactive) | 29.6 µM (inactive) | 35.5 µM (inactive) | 24.3 µM (inactive) | 23 µM (inactive) | 41.9 µM (inactive) | 21.6 µM (inactive) | 0.0689 µM (active) | 30.1 µM (inactive) | 22.4 µM (inactive) | 36.6 µM (inactive) |
| Cc1ccc(C(=O)N/N=C(\N=N\c2cccc([N+](=O)[O-])c2)c2ccc(N(CCC#N)CCC#N)cc2C)cc1 | 25.8 µM (inactive) | 31.9 µM (inactive) | 38.9 µM (inactive) | 24.8 µM (inactive) | 4.73 µM (inactive) | 28.4 µM (inactive) | 12.9 µM (inactive) | 25.4 µM (inactive) | 24.5 µM (inactive) | 33.4 µM (inactive) | 13.2 µM (inactive) | 18.1 µM (inactive) | 20.5 µM (inactive) | 34.8 µM (inactive) | 2.32 µM (inactive) | 23.2 µM (inactive) | 8.75 µM (inactive) | 21.1 µM (inactive) | 21.6 µM (inactive) | 36.1 µM (inactive) |
| O=C(NCCNCCCNC(=O)c1cc(-c2ccccc2)nc2ccccc12)c1cccc(OCc2ccccc2)c1OCc1ccccc1 | 1.6 µM (inactive) | 1.74 µM (inactive) | 1.61 µM (inactive) | 1.79 µM (inactive) | 1.69 µM (inactive) | 1.71 µM (inactive) | 1.6 µM (inactive) | 1.65 µM (inactive) | 1.57 µM (inactive) | 1.65 µM (inactive) | 1.66 µM (inactive) | 1.68 µM (inactive) | 1.83 µM (inactive) | 1.87 µM (inactive) | 1.95 µM (inactive) | 1.71 µM (inactive) | 2.13 µM (inactive) | 1.87 µM (inactive) | 0.889 µM (active) | 1.94 µM (inactive) |
| Cc1ccc2c(c1)/C(=N/Nc1ccccc1[N+](=O)[O-])C(=O)N2 | 4.18 µM (inactive) | 27.9 µM (inactive) | 3.32 µM (inactive) | 87.1 µM (inactive) | 14.6 µM (inactive) | 3.01 µM (inactive) | > 100 µM (inactive) | 2.82 µM (inactive) | 4.36 µM (inactive) | 81.5 µM (inactive) | 12 µM (inactive) | > 100 µM (inactive) | 7.76 µM (inactive) | 3.72 µM (inactive) | 4.85 µM (inactive) | 3.45 µM (inactive) | 6.52 µM (inactive) | 5.33 µM (inactive) | 4.06 µM (inactive) | 4.07 µM (inactive) |
| [N-]=[N+]=NCc1cccc(Nc2cc(=O)[nH]c(=O)[nH]2)c1 | > 100 µM (inactive) | > 100 µM (inactive) | > 100 µM (inactive) | > 100 µM (inactive) | > 100 µM (inactive) | > 100 µM (inactive) | > 100 µM (inactive) | > 100 µM (inactive) | > 100 µM (inactive) | > 100 µM (inactive) | > 100 µM (inactive) | > 100 µM (inactive) | > 100 µM (inactive) | > 100 µM (inactive) | > 100 µM (inactive) | > 100 µM (inactive) | > 100 µM (inactive) | > 100 µM (inactive) | > 100 µM (inactive) |  |
| COc1cc(/C=C/C(=O)Oc2ccc(NC(C)=O)cc2)ccc1C(=O)OCc1ccccc1 | 60.3 µM (inactive) | > 97.1 µM (inactive) | > 93.3 µM (inactive) | 64.3 µM (inactive) | > 100 µM (inactive) | > 100 µM (inactive) | > 72.3 µM (inactive) | 53.8 µM (inactive) | 67.8 µM (inactive) | > 100 µM (inactive) | > 86.5 µM (inactive) | > 100 µM (inactive) | > 89.9 µM (inactive) | > 100 µM (inactive) | > 100 µM (inactive) | > 88.9 µM (inactive) | 28.8 µM (inactive) | 20 µM (inactive) | > 100 µM (inactive) | 41 µM (inactive) |
| CCCCCCC/C=C1\CCC(CN(C)C)C1=O (centres undefined) | 19.9 µM (inactive) | 22.6 µM (inactive) | 16.3 µM (inactive) | 3.03 µM (inactive) | 10.2 µM (inactive) | 7.23 µM (inactive) | 3.02 µM (inactive) | 17.6 µM (inactive) | 6.85 µM (inactive) | 9.71 µM (inactive) | 3.24 µM (inactive) | 5.66 µM (inactive) | 16.4 µM (inactive) | 2.61 µM (inactive) | 9.38 µM (inactive) | 9.77 µM (inactive) | 5.93 µM (inactive) | 18.5 µM (inactive) | 3.47 µM (inactive) | 17.5 µM (inactive) |
| Cc1c(Cl)nc(Cl)nc1Cl | 3.8 µM (inactive) | 2.69 µM (inactive) | 0.273 µM (active) | 0.238 µM (active) | 0.307 µM (active) | 1.14 µM (inactive) | 1.94 µM (inactive) | 4.97 µM (inactive) | 0.373 µM (active) | 0.857 µM (active) | 0.984 µM (active) | 2.19 µM (inactive) | 2.18 µM (inactive) | 1.36 µM (inactive) | 1.85 µM (inactive) | 2.48 µM (inactive) | 1.87 µM (inactive) | 5.68 µM (inactive) | 0.434 µM (active) | 1.77 µM (inactive) |
| CC(C)=CCC/C(C)=C/CC/C(C)=C/CC/C(=C/CC/C(C)=C\CC/C(C)=C/CC/C(C)=C/CC/C(C)=C/Cc1cc(O)ccc1O)CO | 5.33 µM (inactive) | 4.14 µM (inactive) | 1.71 µM (inactive) | 3.56 µM (inactive) | 2.28 µM (inactive) | 2.84 µM (inactive) | 3.15 µM (inactive) | 11.3 µM (inactive) | 2.94 µM (inactive) | 0.681 µM (active) | 2.55 µM (inactive) | 1.12 µM (active) | 0.979 µM (active) | 4.51 µM (inactive) | 4.42 µM (inactive) | 3.75 µM (inactive) | 0.483 µM (active) | 4.02 µM (inactive) | 3.26 µM (inactive) | 3.08 µM (inactive) |
